Source: US20210093730A1, “BIOMARKERS FOR ANTIBODY-DRUG CONJUGATE MONOTHERAPY OR COMBINATION THERAPY” (Immunomedics, Inc., priority 2019, published 2021)
Read-outs that look alike come from different tables or passages of the source.

Tests used:
[1] = test system: NCI-N87-S120 human gastric cancer cells; details: cells with induced resistance to SN-38; cited from earlier work
[2] = test system: MDA-MB-231 human breast cancer cells; details: cells with induced resistance to SN-38; cited from earlier work
[3] = test system: NCI-N87-S120 xenografts; details: in combination with IMMU-132; cited from earlier work
[4] = test system: urothelial carcinoma; details: docetaxel-alone control arm; cited from earlier work
[5] = test system: platinum-resistant urothelial cancer; details: cited from earlier work
[6] = test system: advanced colorectal cancer; details: cited from earlier work
[7] = test system: TNBC xenografts; details: in combination with sacituzumab govitecan; independent of BRCA1/2 mutation status; cited from earlier work
[8] = test system: urothelial carcinoma; details: cited from earlier work
[9] = test system: SCLC; details: cited from earlier work
[10] = test system: SCLC; details: 28 patients; cited from earlier work
[11] = test system: relapsed metastatic ovarian cancer; experiment: Therapy of relapsed metastatic ovarian cancer with IMMU-130 plus prexasertib (case, Example 7); details: one patient
[12] = test system: metastatic colorectal cancer; details: cited from earlier work
[13] = test system: recurrent SCLC; details: cited from earlier work

For `COc1ccc2c3c([nH]c2c1)[C@H](CC(C)C)N1C(=O)[C@H](CCC(=O)OC(C)(C)C)NC(=O)[C@@H]1C3` [Kol43], the “effect on toxicity of SN-38” value [1] is given as “restored toxicity of SN-38” and the “effect on toxicity of SN-38” value [2] is given as “restored toxicity of SN-38”.

In the case of `CCN(CC)CC(=O)OC1CCN(c2ccc(/C=C(\C#N)c3ccc(OC)c(OC)c3)s2)CC1.CS(=O)(=O)O` [YHO-13351], the “effect on toxicity of SN-38” value [1] is listed as “restored toxicity of SN-38”, the “effect on toxicity of SN-38” value [2] is listed as “restored toxicity of SN-38” and the “median survival of mice” value [3] is listed as “increased median survival”.

For `CC(=O)O[C@@]12CO[C@@H]1C[C@H](O)[C@@]1(C)C(=O)[C@H](O)C3=C(C)[C@@H](OC(=O)[C@H](O)[C@@H](NC(=O)OC(C)(C)C)c4ccccc4)C[C@@](O)([C@@H](OC(=O)c4ccccc4)[C@H]21)C3(C)C` [docetaxel], the progression-free survival [4] is listed as 10.4 weeks and the response rate [4] is listed as 5%.

For `COc1ccc2c3c([nH]c2c1)[C@H](C=C(C)C)N1C(=O)[C@@H]2CCCN2C(=O)[C@@H]1C3` [fumitremorgin C], the “effect on toxicity of SN-38” value [1] is listed as “restored toxicity of SN-38” and the “effect on toxicity of SN-38” value [2] is listed as “restored toxicity of SN-38”.

In the case of `CCc1c2c(nc3ccc(OC(=O)N4CCC(N5CCCCC5)CC4)cc13)-c1cc3c(c(=O)n1C2)COC(=O)[C@]3(O)CC` [irinotecan], the overall response rate ([5]; 95% confidence interval 1%-17%) is listed as 5%, the “duration of a complete response” value ([5]; human, in vivo) is listed as 33 months and the overall survival ([5]; human, in vivo) is listed as 5.4 months. For the same compound, the response to irinotecan ([6]; TDP1 IVS12+79 G/G genotype) was 64%, the response to irinotecan ([6]; TDP1 IVS12+79 T/T genotype) was 25% and the “incidence of grade 3/4 neutropenia” value ([6]; TOP1 IVS4+61 A/A genotype (small sample size)) was 50%. For the same compound, the “incidence of grade 3/4 neutropenia” value ([6]; TOP1 IVS4+61 G/G genotype) was 8%.

For `O=C(c1cc(Cc2n[nH]c(=O)c3ccccc23)ccc1F)N1CCN(C(=O)C2CC2)CC1` [olaparib], the “effect on tumor growth” value [7] is given as “synergistic inhibition of tumor growth”.

In the case of `Nc1nc2[nH]cc(CCc3ccc(C(=O)N[C@@H](CCC(=O)O)C(=O)O)cc3)c2c(=O)[nH]1` [pemetrexed], the objective response rate ([8]; 95% confidence interval 1%-9%) is listed as 5% and the median progression-free survival ([8]; in vivo) is listed as 2.4 months.

In the case of `CNCc1ccc(-c2[nH]c3cc(F)cc4c3c2CCNC4=O)cc1` [rucaparib], the “effect on tumor growth” value [7] is given as “synergistic inhibition of tumor growth”.

For `Cn1ncnc1[C@H]1c2n[nH]c(=O)c3cc(F)cc(c23)N[C@@H]1c1ccc(F)cc1` [talazoparib], the “effect on tumor growth” value [7] is given as “synergistic inhibition of tumor growth”.

For `CC[C@@]1(O)C(=O)OCc2c1cc1n(c2=O)Cc2cc3c(CN(C)C)c(O)ccc3nc2-1` [topotecan], the objective response rate ([9]; chemoresistant frontline patients) is given as 5%, the objective response rate ([9]; chemosensitive patients) is given as 17% and the “grade >=3 anemia” value ([9]; in vivo) is given as 24%. The “grade >=3 neutropenia” value ([9]; in vivo) was 69%, the “grade >=3 thrombocytopenia” value ([9]; in vivo) was 1% and the “patients who died from this chemotherapy” value ([9]; in vivo) was “approximately 2%”. For the same compound, the PR [10] was 11%, the median survival [10] was 5 months and the one-year survival [10] was 3.5%.

In the case of labetuzumab govitecan, the “response by RECIST criteria” value ([11]; IMMU-130 10 mg/kg plus prexasertib 105 mg/m^2) is reported as “partial response”, the “decrease of the sum of the diameters of the index lesions” value ([11]; IMMU-130 plus prexasertib) is reported as 45% and the toxicity ([11]; IMMU-130 plus prexasertib) is reported as “transient grade 2 neutropenia and some initial diarrhea”. For the same compound, the “patients with a reduction in tumor size and plasma CEA levels” value ([12]; 72 assessable patients) was 38%, the “patients with partial response” value ([12]; 72 assessable patients) was “One” and the “patients with stable disease” value ([12]; 72 assessable patients) was 42 patients. The “median OS” value ([12]; human, in vivo) was 6.9 months and the “median PFS” value ([12]; human, in vivo) was 3.6 months.

For “nivolumab: anti-PD1 checkpoint inhibitor antibody”, the disease-control rate ([13]; combination with ipilimumab) is listed as 32% and the response rate ([13]; nivolumab alone) is listed as 10%.
